How the values were obtained:
[1] = tested on: αSMA; assay: Phenotypic assay: high content aSMA staining in NHLF cells; type: cell-based, Human; conditions: for IC50: Homo sapiens, SMA, 72 h, read-out: aSMA pIC50 (converted)
Method: NHLF cells (Lonza #CC2512) were seeded as 2000 cells/well in 384-well plates in MEM medium w/o serine and glycine (Sigma #M2279)+1% pen/strep+5 mM L-glutamine +10% FBS and incubated overnight at 37° C., 5% CO2.
The next day, cells were washed with PBS and starvation MEM medium w/o serine and glycine (0% FBS) was added and cells were incubated overnight at 37° C., 5% CO2. The day after, cells were pre-incubated with compounds or vehicle (0.3% DMSO) for 1 h. Compounds were tested at 9 consecutive 3-fold dilutions starting from 30 μM. Each compound was tested in duplicate. Cells were further incubated for 72 h at 37° C., 5% CO2, 95% humidity. After 72 h of incubation, αSMA expression was quantified using immunostaining: • Fixation in 4% paraformaldehyde, • Blocking with 3% BSA, 2% FBS, 0.2% Triton-X in PBS, • Primary ab. anti-αSMA (AbCam #ab7817) diluted 500× in blocking buffer • Anti-mouse secondary ab. AF488 (ThermoFisher #A11029) • % of αSMA positive cells was determined by High Content Imaging (Molecular Device), data analysis was performed using MetaXpress software (Molecular Devices) and % of αSMA positive was further used to calculate % of inhibition for tested compounds. Total cell number was determined by Hoechst staining and % of viability over TGFβ stimulated controls was calculated.

[2] = tested on: bleomycin-induced pulmonary fibrosis; assay: Bleomycin-induced pulmonary fibrosis in male mice (Example 6); type: in vivo, Male C57BL6/J mice; conditions: Nintedanib esylate 50 mg/Kg bid
Method: The effect of Compound 19a was evaluated in a murine model (C57BL/6J mouse strain) in which fibrosis was induced by a double oropharyngeal (OA) instillation of bleomycin. The Compound 19a was administered under therapeutic regimen for 14 days, starting the treatments at day 7 from the first instillation of Bleomycin OA up to the day 21, considered the endpoint for this model.
All mice were maintained under pathogen-free conditions and had free access to food and water.
Lung injury was induced by double OA instillation of bleomycin hydrochloride (BLM, BAXTER, Deerfield, IL, USA) at day 0 and day 4 at the dose of 0.03 U/mouse in […] of saline solution (NaCl 0.9%). Control animals received double OA instillation of […] of saline solution.
The Compound 19a was orally administered twice daily at the three doses of 3, 30 and 100 mg/Kg 10 mL/Kg, using as vehicle for dissolution the 0.5% Tween 80, 0.5% Methylcellulose in H2O.
On day 21, the respiratory system mechanics were measured using the FlexiVent System (SCIREQ Inc., Montreal Qc, Canada) (Vanoirbeek et al., 2010).
Briefly, mice were anesthetized by intraperitoneal injection of ketamine (Anesketin®, Dechra Inc., Handelsweg, NL) and xylazine (Xilagesic®, Calier Inc., Barcelona, ES) solution (100 mg/Kg and 10 mg/Kg, respectively). Once anesthesia was achieved, to analyze forced vital capacity (FVC), anesthetized mice were tracheotomized using an 18-gauge metal cannula, connected via an endotracheal cannula to the FlexiVent and ventilated at a respiratory rate of 150 breaths/min and tidal volume of 10 mL/Kg against a positive end-expiratory pressure of 3 cm H2O to achieve a mean lung volume close to that during spontaneous breathing. To prevent spontaneous breathing mice also received pancuronium bromide at 1 mg/Kg intraperitoneally. FlexiVent software version 8.1 was used to perform the perturbations.
Immediately after the in-life evaluation, plasma and bronchoalveolar lavage fluid (BALF) samples were collected.
First, blood was collected by cardiac puncture, and plasma was obtained after centrifugation of blood at 2000×g and 4° C. for 10 minutes.
Subsequently, the lungs were gently rinsed three times using a tracheal cannula with 0.6 mL of clear BAL solution. The obtained BALF was centrifuged at 1000×g and 4° C. for 10 minutes. The cell-free supernatant was used for biomarkers quantitative determination.
The following biomarkers were determined in BALF and plasma samples by commercially available ELISA kits: Collagen I (evaluated in BALF), an index of collagen accumulation; matrix metallopeptidase 7 (MMP-7, evaluated in BALF), indicator of aberrant fibrogenesis and ECM remodeling and surfactant protein D (SP-D, evaluated in PLASMA), marker of alveolar epithelial cell damage and dysfunction.
Lastly, the entire lungs were resected, fixed with formalin and embedded in paraffin. Sections were stained with Masson's trichrome to assess the grade and severity of fibrosis and collagen deposition.

[3] = tested on: bleomycin-induced pulmonary fibrosis; assay: Bleomycin-induced pulmonary fibrosis in male mice (Comparative Example 7); type: in vivo; conditions: for lung/body weight: NCT-503 100 mg/kg/day, Nintedanib esylate 60 mg/Kg/day
Method: The allosteric inhibitor NCT-503 has accordingly been assessed in the same murine model of Compound 19. Comparative Example 7 was carried out under the same experimental conditions of Example 5.
The treatment was stopped at day 10, after 4 days of treatment with NCT-503 600 mg/kg/day. After two days wash-out, the treatment re-started with a once daily regimen at the final dose of […].
The final dose was of 100 mg/kg/day.

[4] = tested on: bleomycin-induced pulmonary fibrosis; assay: Bleomycin-induced pulmonary fibrosis in male mice (Example 5)
Method: Male C57BL6/J mice (7-8 weeks old) were purchased from the Envigo RMS (San Pietro al Natisone (UD), Italy). All mice were maintained under pathogen-free conditions and were provided food and water ad libitum.
Lung injury was induced by double oropharyngeal instillation of Bleomycin hydrochloride (BLM, BAXTER) at day 0 and day 4 at the doses of 0.02 U/mouse in 50 μl of saline solution (0.9%). Control animals received double oropharyngeal instillation of 50 μl of saline solution.
Compound 19 was orally administered twice daily, starting on day 7 after the first oropharyngeal administration of bleomycin at the two doses of 400 and 600 mg/kg/day, 10 ml/kg, dissolved in 0.5% Tween 80, 0.5% Methylcellulose in H2O and treatment lasted for two weeks.
A group of animals was treated with Nintedanib esylate salt, at the dose of 60 mg/kg/day, 10 ml/kg, once daily, to compare the efficacy of the test compounds with an FDA approved drug for the treatment of IPF patients. Control mice were given vehicle-only over the same time intervals. Weight of all animals has been assessed twice a week starting from day 0 until day 21.
On days 21, mice were anesthetized by intraperitoneal injection of thiopental (200 mg/kg/10 ml; pentothal sodium, MSD Animal Health Srl). Blood was withdrawn by cardiac puncture and collected in heparine tubes. Plasma was obtained after centrifugation of blood at 10,000 g for 10 min. Lungs were lavage with saline solution through the heart, formalin fixed and paraffin embedded, and sections were stained with Masson's Trichrome to evaluate the grade and severity of fibrosis and collagen deposition.
Masson's Trichrome stained slides were also scanned with NanoZoomer S60 (Hamamatsu Photonics K.K., Shizuoka, Japan) and acquired into the Visiopharm Integrator System (VIS; version 2017.2.4.3387) for a quantification of pulmonary fibrosis by automated analysis with the support of a VIS Analysis Protocol Package (APP). The present APP has been designed to identify and then quantify the fibrotic tissue, detecting accumulation of altered connective tissue, excess of collagen deposition and cellular density.
To quantify lung protein content and the levels of specific proteins as markers of fibrosis and collagen deposition, lungs from subgroups of animals were weighted, homogenized in Phosphate buffer solution (PBS) and proteins of interest were quantified by immunometric or colorimetric assays. Hydroxyproline content was determined using the Hydroxyproline Colorimetric Assay Kit (Sigma MAK008, USA) according to the manufacturer's protocol. WISP-1, CollagenI, pro-CollagenI and Elastin were determined by Elisa kits. Protein quantification was performed using DC Protein Assay (Bio-Rad Laboratories, Italy). Plasma serine levels were measured using the DL-Serine Assay Kit (Abcam, Cambridge, MA).

[5] = tested on: alpha smooth muscle actin (α-SMA); assay: TGF-b induced α-SMA expression in NHLFs (Western blot); type: cell-based, Human; conditions: 50 uM; NHLF, TGF-β (10 ng/ml) 48 h
Source text: The antifibrotic activity of compounds of the present invention has been monitored measuring the expression of fibrotic mediators, collagen I (Col-I) and alpha smooth muscle actin (α-SMA) after treatment in lung cells with TGF-β in comparison with Nintedanib (see Frank Hilberg et al, Cancer Res 2008 Jun. 15; 68(12):4774-82), and allosteric inhibitor NCT-503 (see Hamanaka et al., Am J Respir Cell Mol Biol. 2018 May; 58(5):585-593).
Human normal lung fibroblasts (NHLFs) were purchased from Lonza (Basel, Switzerland). NHFLs were cultured in Eagle's Minimum Essential medium (EMEM) w/o serine and glycine, supplemented with 10% Fetal Bovine Serum (FBS), antibiotics (50 U/ml penicillin and 0.05 mg/ml streptomycin) and 2 mM L-glutamine, in an atmosphere of 95% air and 5% CO2 at 37° C. NHLFs cultures were used between passage 1 and 9. Before all the experiments, cells were incubated overnight in serum-free medium.
NHLFs were seeded in 12-well plates at cultured until 70% of confluency. To examine the expression of fibrotic markers, cells were treated with different concentrations of Compounds and NCT-503 in EMEM medium for 1 h followed by stimulation with TGF-β for 48 h at 37° C., 5% CO2. Following cell treatments, medium was removed and whole cell extracts were prepared by directly adding to the well the 1× loading buffer (125 mM Tris-HCl pH 6.8, 4% SDS, 0.2% Orange G, 50% glycerol, 2.5% β-mercaptoethanol, Li-cor Biosciences), boiled for 5 min and then electrophoresed on Mini protean TGX gel 4-12% (Biorad). After electrophoresis, proteins were transferred to a nitrocellulose membrane. Immunodetection of Col-I, α-SMA and glyceraldeide 3-phosphate dehydrogenase (GAPDH) were obtained by using mouse anti-CollA1 (Santacruz), mouse anti-α-SMA (sigma) and rabbit anti-GAPDH (Cell Signaling Technology) all diluted at 1:1000 in TBS-tween 0.1%. […] Detection and quantification were performed with Odyssey imaging system (Li-cor) using GAPDH as loading control.

[6] = Plasma and brain exposure after the last dose in bleomycin model (Comparative Example 7); type: in vivo, mice; conditions: after the last oral dose; 0.5 h, 2 h and 7 h
Method: Plasma and tissue exposures of NCT-503 were determined as described in Example 2. The plasma and brain concentrations of NCT-503 were determined by a liquid chromatography-tandem mass spectrometry (LC/MS/MS) assay. Plasma or tissue homogenate samples (tissues were homogenized with a water/acetonitrile 50/50 mixture) were extracted with 3 volumes of acetonitrile. Supernanatant was injected into HPLC system (Agilent 1260 Quaternary Pump equipped with an Agilent 1200 High Performance Autosampler SL; Agilent), using a Kinetex EVO C18 analytical column (100 A, 50×2.1 mm, 2.6 μm; Phenomenex). The mobile phases consisted of 0.1% formic acid in water (solvent A) and 0.1% formic acid in acetonitrile (solvent B); chromatographic separation was performed with gradient elution method (0.0-0.5 min, 5% B; 0.5-4.0 min, gradient to 90% B; 4.0-5.5 min, 90% B; 5.5-7.0 min, gradient to 5% B; 7.0-11.0 min, 5% B—flow rate: 0.3 mL/min).
Mass spectrometric analysis was performed on a linear ion trap triple quadrupole mass spectrometer (4000 Q TRAP; AB SCIEX) equipped with a turbo spray ion source; mass spectrometer was operated in positive ion mode and quantification was achieved by multiple reaction monitoring (MRM) mode. Peak integration was performed using Analyst (version 1.6.2.). […]
Plasma and brain exposure of NCT-503 was determined following the last oral dose at three timepoints (0.5 h, 2 h and 7 h).

[7] = tested on: bleomycin-induced pulmonary fibrosis; conditions: treated mice 7 days after intratracheal instillation of bleomycin; cited from earlier work

Q: With `Cn1c(C(=O)NC2(c3ccc(C(C(=O)O)C4CC4)cc3)CCOC2)cc2c(Cl)c(Cl)ccc21` (racemic) [Compound 15, (±)-2-Cyclopropyl-2-(4-(3-(4,5-dichloro-1-methyl-1H-indole-2-carbox-amido)tetrahydrofuran-3-yl)phenyl)acetic acid] as the molecule, how does the IC50 ([1]; NHLF, 72 h incubation) read?
A: 2000 nM

Q: Which IC50 ([1]; NHLF, 72 h incubation) does the source give for `CCC(C(=O)O)c1ccc(C2(NC(=O)c3cc4c(Cl)c(Cl)ccc4n3C)CCOC2)cc1` (racemic) [Compound 72, (±)-2-{4-[3-(4,5-dichloro-1-methyl-1H-indole-2-amido)oxolan-3-yl]phenyl}butanoic acid] here?
A: 1260 nM

Q: For `Cn1c(C(=O)NC2(c3ccc(C(C(=O)O)C4CCCC4)cc3)CCOC2)cc2c(Cl)c(Cl)ccc21` (racemic) [Compound 16, (±)-2-cyclopentyl-2-{4-[3-(4,5-dichloro-1-methyl-1H-indole-2-amido)oxolan-3-yl]phenyl}acetic acid], which IC50 ([1]; NHLF, 72 h incubation) is on record?
A: 501 nM

Q: What does the source list for `COC(=O)c1ccc2c(c1)NC(=O)/C2=C(\Nc1ccc(N(C)C(=O)CN2CCN(C)CC2)cc1)c1ccccc1` [Nintedanib, reference compound]?
A: reduction of Collagen I in BALF ([2]; Compound 19a 100 mg/Kg bid): 56%; reduction of MMP-7 in BALF ([2]; Compound 19a 100 mg/Kg bid): 86%; reduction of SP-D levels in plasma ([2]; Compound 19a 100 mg/Kg bid): 87%; improvement of FVC decline ([2]; Compound 19a 100 mg/kg bid, vs BLM/vehicle): similarly to Nintedanib; lung/body weight [3]: do not induce reduction of lung/body weight; reduction of lung/body weight ([4]; Compound 19 highest dose (600 mg/kg/day), Nintedanib esylate 60 mg/kg/day, not significant): −21%; body weight during 2-weeks of treatment ([4]; compared to BLM/Vehicle treated group): did not lose additional weight; Ashcroft score (FIG. 11A) ([4]; day 21): reduced

Q: With `Cc1cc(C)nc(NC(=S)N2CCN(Cc3ccc(C(F)(F)F)cc3)CC2)c1` [NCT-503] as the molecule, how does the “TGF-b induced a-sma (% inh. 50 uM)” value [5] read?
A: 93%

Q: And the “aSMA pIC50” value ([1]; NHLF, 72 h incubation)?
A: >5.0

Q: What about the “expression of aSMA (in words)” value ([1]; after 72 hours of incubation) of the same molecule?
A: partially reduces the expression of aSMA

Q: And the “fibrosis severity (FIG. 20B)” value ([3]; 100 mg/kg/day)?
A: not significant trend in reducing fibrosis severity

Q: And the “Ashcroft score analysis (FIG. 20A)” value ([3]; 100 mg/kg/day, compared to vehicle-treated mice)?
A: did not result in diminished Bleomycin-induced lung fibrosis

Q: What about the body weight ([3]; 200 mg/kg/day) of the same molecule?
A: did not show a significant worsening of the body weight

Q: What about the tolerability ([3]; 600 mg/kg/day (bid)) of the same molecule?
A: did not tolerate

Q: And the survival ([3]; 600 mg/kg/day then 300 mg/kg/day once daily)?
A: 40%

Q: What about the “weight loss compared to Day 0” value ([3]; 600 mg/kg/day, 4 days of treatment) of the same molecule?
A: ~ 20%

Q: And the lung/body weight [3]?
A: do not induce reduction of lung/body weight

Q: What about the “levels of pro-CollagenI and WISP-1” value ([3]; lung homogenates) of the same molecule?
A: not affected

Q: And the “circulating serine levels (de novo serine synthesis)” value ([3]; plasma)?
A: did not induce inhibition of de novo serine synthesis

Q: What about the main brain/plasma ratio [6] of the same molecule?
A: 2.4

Q: And the “attenuation of lung fibrosis” value [7]?
A: preliminary efficacy in attenuation of lung fibrosis

Q: Which IC50 ([1]; NHLF, 72 h incubation) does the source give for `COc1cc2c(cc(C(=O)NC3(c4ccc(C(C(=O)O)C(C)C)cc4)CCOC3)n2C)c(Cl)c1Cl` (racemic) [Compound 20, (±)-2-{4-[3-(4,5-dichloro-6-methoxy-1-methyl-1H-indole-2-amido)oxolan-3-yl]phenyl}-3-methylbutanoic acid] here?
A: 1260 nM

Source: US20260207551A1, “PHOSPHOGLICERATE DEHYDROGENASE INHIBITORS FOR THE TREATMENT OF FIBROSIS” (CHIESI FARMACEUTICI S.P.A., priority 2022, published 2026)
